Measured values taken from the supplement of paper PMC10307832.

How the values were obtained:
Assay in all cases: relative viability (nuclei count vs DMSO), 5 days (fraction); higher = more cells survive
VX-11e + Palbociclib = compound: CC1=CN=C(N=C1C2=CNC(=C2)C(=O)N[C@H](CO)C3=CC(=CC=C3)Cl)NC4=C(C=C(C=C4)F)Cl [VX-11e] + CC(=O)c1c(C)c2cnc(Nc3ccc(N4CCNCC4)cn3)nc2n(C2CCCC2)c1=O [Palbociclib] (partner 0.5 µM)
In short: (§1)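 After 5 days of treatment, lung cancer cells in 1536-well plates were fixed and stained in a single step (final 0.05% Triton X-100, 1% formaldehyde, 1 ug/ml Hoechst) and their nuclei counted on 4× images. Treatment had been applied by pin tool the day after seeding as one drug alone or as a fixed anchor-drug dose with five library-drug doses (not always all listed) in √10 steps. Relative viability is the nuclei count of treated wells divided by that of vehicle wells, and values are medians of duplicate plates.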

VX-11e + Pictilisib = compound: CC1=CN=C(N=C1C2=CNC(=C2)C(=O)N[C@H](CO)C3=CC(=CC=C3)Cl)NC4=C(C=C(C=C4)F)Cl [VX-11e] + CS(=O)(=O)N1CCN(Cc2cc3nc(-c4cccc5[nH]ncc45)nc(N4CCOCC4)c3s2)CC1 [Pictilisib] (partner 1 µM)
In short: as §1

VX-11e + Bortezomib = compound: CC1=CN=C(N=C1C2=CNC(=C2)C(=O)N[C@H](CO)C3=CC(=CC=C3)Cl)NC4=C(C=C(C=C4)F)Cl [VX-11e] + CC(C)C[C@H](NC(=O)[C@H](Cc1ccccc1)NC(=O)c1cnccn1)B(O)O [Bortezomib] (partner 0.002 µM)
In short: as §1

VX-11e + Foretinib = compound: CC1=CN=C(N=C1C2=CNC(=C2)C(=O)N[C@H](CO)C3=CC(=CC=C3)Cl)NC4=C(C=C(C=C4)F)Cl [VX-11e] + COc1cc2c(Oc3ccc(NC(=O)C4(C(=O)Nc5ccc(F)cc5)CC4)cc3F)ccnc2cc1OCCCN1CCOCC1 [Foretinib] (partner 0.25 µM)
In short: as §1

Cell Line	relative viability (VX-11e + Palbociclib; first compound 0.04 µM)	relative viability (VX-11e + Palbociclib; first compound 0.1265 µM)	relative viability (VX-11e + Palbociclib; first compound 1.265 µM)	relative viability (VX-11e + Palbociclib; first compound 4 µM)	relative viability (VX-11e + Pictilisib; first compound 0.04 µM)	relative viability (VX-11e + Pictilisib; first compound 0.1265 µM)	relative viability (VX-11e + Pictilisib; first compound 0.4 µM)	relative viability (VX-11e + Pictilisib; first compound 1.265 µM)	relative viability (VX-11e + Pictilisib; first compound 4 µM)	relative viability (VX-11e + Bortezomib; first compound 0.04 µM)	relative viability (VX-11e + Bortezomib; first compound 0.1265 µM)	relative viability (VX-11e + Bortezomib; first compound 0.4 µM)	relative viability (VX-11e + Bortezomib; first compound 1.265 µM)	relative viability (VX-11e + Bortezomib; first compound 4 µM)	relative viability (VX-11e + Foretinib; first compound 0.04 µM)	relative viability (VX-11e + Foretinib; first compound 0.1265 µM)	relative viability (VX-11e + Foretinib; first compound 1.265 µM)	relative viability (VX-11e + Foretinib; first compound 4 µM)	relative viability (VX-11e + Palbociclib; first compound 0.4 µM)	relative viability (VX-11e + Foretinib; first compound 0.4 µM)
NCI-H2087	0.203	0.244	0.176	0.176	0.778	0.734	0.271	0.445	0.273	0.863	0.639	0.582	0.921	0.287	1.14	1.06	0.81	0.454	–	–
NCI-H2126	0.331	0.379	0.353	0.318	–	0.518	0.393	0.384	0.392	–	1.06	1.01	1.14	1.02	1.21	1.22	1.1	0.903	0.359	1.01
NCI-H2228	0.832	0.731	0.528	0.199	0.355	0.464	0.0994	0.854	0.188	1.18	1.18	0.221	0.681	0.284	0.79	0.936	0.482	0.275	0.165	–
NCI-H2347	0.475	0.405	0.398	0.379	0.813	0.662	0.491	0.36	0.298	0.87	0.801	0.815	0.738	0.435	0.761	0.877	0.67	0.652	0.481	0.46
NCI-H2405	0.579	0.506	0.513	0.328	0.3	0.388	–	0.412	0.125	1.04	0.953	0.988	0.952	0.601	1.04	1.01	1.08	0.455	0.385	1.05
NCI-H3122	0.211	0.164	0.166	0.135	0.633	0.57	0.255	0.406	0.212	1.11	1.03	0.743	0.832	0.676	0.948	0.897	0.851	0.487	0.168	–
PC-3 [JPC-3]	0.565	0.558	0.624	0.546	0.608	0.684	0.703	0.644	0.635	0.91	0.828	0.803	0.993	0.719	1.06	0.972	1.08	0.769	0.519	1.05
PC-14	0.551	0.497	0.252	0.19	0.661	0.619	0.583	0.494	0.207	0.967	0.798	0.818	0.869	0.527	1.08	1.05	1.07	0.708	0.374	0.981
RERF-LC-KJ	1.11	1.02	0.952	0.908	0.63	0.521	0.614	0.641	0.484	1	1.04	–	1.03	0.894	1.01	0.886	0.856	0.813	0.981	0.901
SK-LU-1	0.399	0.355	0.365	0.236	0.442	0.551	0.249	0.37	0.195	1.01	0.718	–	0.895	0.452	0.882	0.779	0.574	0.224	0.325	–
SW 1573	–	0.342	0.259	0.15	0.509	0.522	0.404	0.307	0.298	0.812	0.854	1.02	0.826	0.64	0.947	0.902	0.86	0.708	0.351	0.78
UMC-11	–	0.309	0.267	0.318	0.355	0.943	0.755	0.401	0.609	0.562	0.668	0.714	0.598	0.551	1.05	0.946	0.976	0.905	0.283	0.986
